Data as given in paper PMC9529094, “Identification of natural cytochalasins as leads for neglected tropical diseases drug discovery” (PLoS ONE, 2022).
Where two headings read alike, the source gives them in different places.

What was measured:
L. infantum = assay: Screening of natural product collection against L. infantum (cell infection assay); type: cell-based; details: Leishmania infantum; compound concentration of 50 μM
Experimental: A screening of a natural product collection was performed by using cell assays for infection with Trypanosoma cruzi and Leishmania infantum. The collection includes 320 compounds from the metabolic classes terpenes, alkaloids, peptides and amides that were isolated by plant species or endophytic fungi. For further evaluation in this study, cytochalasins A-D (CAS numbers: CytA: 14110-64-6, CytB: 14930-96-2, CytC: 22144-76-9, CytD: 22144-77-0) were obtained from Sigma-Aldrich (St. Louis, MO, USA). The purity of these compounds was ≥97%. The stock solution of the compounds was prepared in 100% DMSO (dimethyl sulfoxide—Sigma-Aldrich).

in vitro [1] = type: cell-based; details: human; 72 h, resazurin; read-out: THP-1 CC50 (μM ± SD)
Experimental: THP-1 (human monocyte cell line) cells were cultivated in RPMI medium supplemented with 10% foetal calf serum (FCS) (Cultilab, Campinas, SP, BR) and 1% penicillin and streptomycin (pen/strep—Sigma-Aldrich) at 37°C under 5% CO2, and HFF-1 (human fibroblast) and HepG2 (hepatocytes) cells were cultivated in DMEM without phenol red (Cultilab) supplemented with 10% FBS (Sigma-Aldrich) and 1% pen/strep at 37°C under 5% CO2.
THP-1 cells were seeded at 2x10^4/well in 96-well culture plates in RPMI 1640 supplemented (10% FCS, 1% pen/strep) and incubated overnight (37°C, 5% CO2). The compounds were added in 2-fold serial dilutions (64–0.12 μM), and the plates were incubated as described before. Each compound concentration was evaluated in duplicate. All the plates included DOX (Sigma-Aldrich) as a positive control (10–0.01 μM) and untreated wells as a negative control (100% growth). After 72 h, 20 μL of resazurin (Sigma-Aldrich) was added, and the plates were incubated for 4 h. The absorbance was measured at 536 and 588 nm in an automated microplate reader SpectraMax Gemini, and the data were analysed using GraphPad Prism version 8.0 for CC50 value calculation. The percentage of nonviable cells was determined and compared to the negative control wells (100% growth).

physchem = type: physicochemical; details: pH 7.4, from LC retention time calibration; read-out: LogD 7.4 (Oct/buff)
Experimental: To analyse cytochalasin lipophilicity, a methodology based on the retention time of molecules in stationary phase was used in LC-MS/MS (liquid chromatography-tandem mass spectrometry) Prominence UFLC (Shimadzu Corporation, Kyoto, Japan) and an interface with an LCMS-8045 triple quadrupole mass spectrometer (Shimadzu Corporation, Kyoto, Japan) with an electrospray ionization source (ESI). The chromatogram was obtained using a Supelco Ascentis express RP amide HPLC column (5 cm x 2.1 mm, 2.7 μM). The mobile phases consisted of 5% methanol in 10 mM ammonium acetate pH 7.4 (A) and 100% methanol (B). The mobile phase was eluted in binary gradient mode, and the gradient was as follows: 0 min, 95% A; 0.3 mins. 100% A; 5.2 mins. 0% A; 5.6 mins. 0% A; 5.8 mins. 100% A; 7.0 mins. And 100% A. The run time was 7 minutes, and the sample injection volume was 5 μL. Test compounds were prepared at 1.0 mg/mL by adding the stock solution at (1:1) mobile phases A:B (internal standard at 200 nM), and the DMSO concentration was lower than 2%. […]. The retention time (in minutes) of each of the eight standards was plotted against their LogD values. The resulting equation for the calibration curve (y = mx + b) was used to calculate the LogD values for the cytochalasins.

in vitro [2] = type: in vitro ADME; details: pH 7.4, 0.5 μM compound, 0.25 mg/mL microsomes
Experimental: The metabolic stability of the cytochalasins was evaluated in human pooled liver human microsomes (20 mg/ml, GIBCO) and pooled liver CD1 mouse microsomes (20 mg/ml, GIBCO). Test cytochalasins were prepared at a concentration of 0.5 μM and incubated with 0.25 mg/mL liver microsomes at pH 7.4), and the DMSO concentration was lower than 1%. The reaction was started by adding the cofactor NADPH at […]. Samples were taken at time point 0 (immediately following the addition of the co-factor), 5, 10, 20, 30 and 60 minutes. The reaction was stopped by adding quench solution containing acetonitrile:methanol (1:1) (internal standard tolbutamide at 50 nM). The samples were centrifuged (3500 rpm/30 min.) to obtain the pellet of precipitated microsomal protein. The supernatant fractions were quantified by LC-MS/MS (liquid chromatography-tandem mass spectrometry) Prominence UFLC (Shimadzu Corporation, Kyoto, Japan) and interfaced with an LCMS-8045 triple quadrupole mass spectrometer (Shimadzu Corporation, Kyoto, Japan) with an electrospray ionization source (ESI). The peak area ratios (analyte/internal standard) were converted to the % remaining using the area ratio at time 0 as 100%. The half-life (t1/2 = ln(2)/k) in minutes and intrinsic clearance (Clint = k x 1000/(0.25)) in μL/min/mg were calculated using a nonlinear regression from the % remaining versus the incubation time. From this plot, the slope (k) was determined. The chromatogram for analysis was obtained on a Supelco Ascentis express C18 column (3 cm x 2.1 mm, 5 μM). The mobile phases consisted of water + 0.1% formic acid (A) and acetonitrile + 0.1% formic acid (B). The mobile phase was eluted in binary gradient mode, and the gradient was as follows: 0 min, 95% A; 0.05 mins. 95% A; 0.3 mins: 2% A; 0.7 mins: 2% A; 0.8 mins: 95% A; 1.15 mins 95% A; and 2.0 mins 95% A. The run time was 2 minutes, the sample injection volume was 10 μL, and the flow rate was 0.7 mL/min.

[3] = human, read-out: Human liver microsome (HLM) CLint(mic)
[4] = CD1, mouse, read-out: Mouse liver microsome (MsLM) CLint(mic)

| SMILES | inhibition at 50 µM (L. infantum) | CC50 (in vitro [1]) | chromatographic logD (physchem) | microsomal CLint (in vitro [2]; [3]) | microsomal CLint (in vitro [2]; [4]) |
| --- | --- | --- | --- | --- | --- |
| CC(=O)OC1C=CC(C)(O)C(=O)C(C)CC=CC2C(O)C(C)=C(C)C3C(Cc4ccccc4)NC(=O)C123 (stereo not drawn) [Cytochalasin C] | 58.5% | 84.8 ± 6.84 µM | 3.434 ± 0.003 | 144 ± 15.8 µL/min/mg | – |
| C=C1[C@@H](C)[C@H]2[C@H](Cc3ccccc3)NC(=O)[C@]23[C@H](OC(C)=O)/C=C/[C@@](C)(O)C(=O)[C@@H](C)C/C=C/[C@H]3[C@@H]1O [Cytochalasin D] | 64.9% | 122 ± 11.3 µM | 3.043 ± 0.004 | – | 163 ± 22.4 µL/min/mg |
| C=C1[C@@H](C)[C@H]2[C@H](Cc3ccccc3)NC(=O)[C@]23OC(=O)/C=C/C(=O)CCC[C@@H](C)C/C=C/[C@H]3[C@@H]1O [Cytochalasin A] | 100% | 17 ± 1.34 µM | 3.907 ± 0.014 | 7.86 ± 2.05 µL/min/mg | 167 ± 9.12 µL/min/mg |
| C=C1[C@@H](C)[C@H]2[C@H](Cc3ccccc3)NC(=O)[C@]23OC(=O)/C=C/[C@H](O)CCC[C@@H](C)C/C=C/[C@H]3[C@@H]1O [Cytochalasin B] | 57.7% | 109 ± 2.4 µM | 3.361 ± 0.008 | 217 ± 6.05 µL/min/mg | 62.9 µL/min/mg |
